Measured values from EP1020526B1, “Process for producing L-Threonine by fermentation” (priority 1992, dated 1994).

Assays:
GT3/pLYSC1 = assay: Growth of completely AK-deficient GT3 strain possessing lysC plasmid on M9 minimal agar with added lysine or AEC; on Growth: key: +: growth; ±: some growth; -: no growth; format: cell-based, E. coli; conditions: for growth: M9 agar medium, 37°C, 2 day culturing; for MIC: Escherichia coli, GT3, M9 minimal agar plate medium, read-out: concentration at which growth was completely inhibited
Description: (§1) First, pLYSC1 and pLYSC2 were each incorporated into E. coli GT3 for its transformation to obtain two different transformants, and culturing was effected on an M9 minimal agar plate medium containing lysine or AEC. Also, the growth inhibition concentration of lysine or AEC was determined, and the conditions for selection of lysC* were investigated.

GT3/pLYSC2 = assay: as above; format: cell-based, E. coli; conditions: M9 agar medium, 37°C, 2 day culturing; further: key: +: growth; ±: some growth; -: no growth
Description: as §1

[1] = biological target: T1, Escherichia coli aspartokinase III (AK III, lysC), wild type, SEQ ID NO: 1 (Escherichia coli, UniProt P08660); assay: Aspartokinase (AK III) activity, lysine-dependent inhibition, crude enzyme, hydroxamate method of Stadtman et al.; format: biochemical
T1 construct: made in house; host or cells: E. coli GT3 (lacks AK I, II and III) carrying pLYSC1; cell-free extract, ammonium sulfate fraction
Description: (§2) A completely AK-deficient GT3 strain was used as the host in respect of which the above mentioned 14 mutant pLYSC1's (named the pLYSC1* series) and wild pLYSC1 plasmids were respectively used for transformation, after which a cell-free extract was prepared from the transformants and the enzyme activity of AK III was measured. The method for the measurement of the enzyme activity was as follows.
(§3) • (1) Culturing of cells in 2 x TY medium, followed by cell collection at O.D. 660 nm = approx. 0.8. • (2) Washing with 0.02 M KH2PO4 (pH 6.75) - 0.03 M β mercaptoethanol at 0°C. • (3) Sonic crushing of cells (0°C, 100 W, 30 sec x 4 times). • (4) Centrifugation at 0°C, 33 krpm for 1 hour, followed by addition of ammonium sulfate to supernatant to 80% saturation. • (5) Centrifugation, followed by dissolution of pellets in buffer of (2), and preservation (-20°C).
(§4) The method of measuring the enzyme activity was according to the method of Stadtman, et al. (Stadtman, E.R., Cohen, G.N., Lebras, G. and Robichon-Szulmajster, H., J. Biol. Chem., 236, 2033, 1961).
(§5) Table 5: Reaction solution composition
(§6) The measurement method is outlined in Table 6 below. Table 6: Outline of measurement method
(§7) For the measurement of the enzyme activity of AK, lysine was added to the enzyme reaction solutions at various concentrations, and the levels of lysine-dependent inhibition were determined.
(§8) In Table 7, the inhibition release is presented as the activity (%) in the presence of 100 mM of lysine with respect to the activity of a lysine-free reaction solution, and the thermal stability is presented as the maintenance of activity (%) after treatment at 55°C for 1.5 hours with respect to the activity without heating. Table 7: Inhibition release by lysine and thermal stability

[2] = biological target: T2, Escherichia coli aspartokinase III (AK III) mutant lysC* No. 172, 318 Met→Ile, 349 Val→Met (Escherichia coli, UniProt P08660, M318I/V349M); assay: Aspartokinase (AK III) activity, lysine-dependent inhibition; format: biochemical
T2 construct: made in house; host or cells: E. coli GT3 carrying mutant pLYSC1*; cell-free extract
Description: as §2, §3, §4, §5, §6, §7, §8

[3] = biological target: T3, Escherichia coli aspartokinase III (AK III) mutant lysC* No. 169, 352 Thr→Ile, 369 Ser→Phe (Escherichia coli, UniProt P08660, S369F/T352I); assay: as above; format: biochemical
T3 construct: made in house; host or cells: E. coli GT3 carrying mutant pLYSC1*; cell-free extract
Description: as §2, §3, §4, §5, §6, §7, §8

[4] = biological target: T4, Escherichia coli aspartokinase III (AK III) mutant lysC* No. 24, 352 Thr→Ile (Escherichia coli, UniProt P08660, T352I); assay: as above; format: biochemical
T4 construct: made in house; host or cells: E. coli GT3 carrying mutant pLYSC1*; cell-free extract
Description: as §2, §3, §4, §5, §6, §7, §8

[5] = biological target: T5, Escherichia coli aspartokinase III (AK III) mutant lysC* No. 149, 34 Arg→Cys, 323 Gly→Asp (Escherichia coli, UniProt P08660, G323D/R34C); assay: as above; format: biochemical; conditions: activity in the presence of 100 mM of lysine with respect to lysine-free reaction solution
T5 construct: made in house; host or cells: E. coli GT3 carrying mutant pLYSC1*; cell-free extract
Description: as §2, §3, §4, §5, §6, §7, §8

[6] = biological target: T6, Escherichia coli aspartokinase III (AK III) mutant lysC* No. 117, 345 Ser→Leu (Escherichia coli, UniProt P08660, S345L); assay: as above; format: biochemical
T6 construct: made in house; host or cells: E. coli GT3 carrying mutant pLYSC1*; cell-free extract
Description: as §2, §3, §4, §5, §6, §7, §8

[7] = biological target: T7, Escherichia coli aspartokinase III (AK III) mutant lysC* No. 80, 352 Thr→Ile (Escherichia coli, UniProt P08660, T352I); assay: as above; format: biochemical
T7 construct: made in house; host or cells: E. coli GT3 carrying mutant pLYSC1*; cell-free extract
Description: as §2, §3, §4, §5, §6, §7, §8

[8] = lysine, compared with wild type AK III

T1 sequence (P08660 2-449): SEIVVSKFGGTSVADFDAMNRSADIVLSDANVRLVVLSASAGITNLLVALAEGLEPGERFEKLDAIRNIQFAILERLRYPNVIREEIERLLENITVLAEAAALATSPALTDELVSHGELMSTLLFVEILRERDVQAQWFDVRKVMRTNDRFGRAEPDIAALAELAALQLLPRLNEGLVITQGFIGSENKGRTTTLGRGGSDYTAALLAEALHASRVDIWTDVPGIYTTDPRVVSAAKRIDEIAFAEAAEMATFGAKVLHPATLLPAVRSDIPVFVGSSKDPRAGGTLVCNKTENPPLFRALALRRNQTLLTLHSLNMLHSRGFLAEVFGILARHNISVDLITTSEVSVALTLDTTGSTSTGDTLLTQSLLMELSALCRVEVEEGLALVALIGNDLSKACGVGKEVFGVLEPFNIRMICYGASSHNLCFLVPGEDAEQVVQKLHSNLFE
T3 sequence (P08660 2-449 T352I/S369F): as the sequence (P08660 2-449) above, with T351I, S368F counted along it
T6 sequence (P08660 2-449 S345L): as the sequence (P08660 2-449) above, with S344L counted along it
T2 sequence (P08660 2-449 M318I/V349M): as the sequence (P08660 2-449) above, with M317I, V348M counted along it
T7 sequence (P08660 2-449 T352I): as the sequence (P08660 2-449) above, with T351I counted along it
T4 sequence (P08660 2-449 T352I): as the sequence (P08660 2-449) above, with T351I counted along it
T5 sequence (P08660 2-449 R34C/G323D): as the sequence (P08660 2-449) above, with R33C, G322D counted along it

NCCSC[C@H](N)C(=O)O [AEC, S-2-aminoethylcysteine, reference compound]
-: growth (GT3/pLYSC1; 0.2 mM added) | growth (GT3/pLYSC1; 0.4 mM added) | growth (GT3/pLYSC1; 0.8 mM added) | growth (GT3/pLYSC1; 1.5 mM added) | growth (GT3/pLYSC1; 3 mM added) | growth (GT3/pLYSC1; 6 mM added) | growth (GT3/pLYSC1; 12 mM added) | growth (GT3/pLYSC1; 25 mM added) | growth (GT3/pLYSC1; 50 mM added) | growth (GT3/pLYSC2; 6 mM added) | growth (GT3/pLYSC2; 12 mM added) | growth (GT3/pLYSC2; 25 mM added) | growth (GT3/pLYSC2; 50 mM added)
~200 µM: MIC (GT3/pLYSC1)
±: growth (GT3/pLYSC2; 0.2 mM added) | growth (GT3/pLYSC2; 0.4 mM added) | growth (GT3/pLYSC2; 0.8 mM added) | growth (GT3/pLYSC2; 1.5 mM added) | growth (GT3/pLYSC2; 3 mM added)

NCCCC[C@H](N)C(=O)O [lysine]
~450 µM: IC50 [1]
0%: activity at 100000 µM ([1]; activity in the presence of 100 mM of lysine with respect to lysine-free reaction solution, read-out: Inhibition release (%))
≥ 200 fold: 50% inhibition concentration (fold) [2, 8] | 50% inhibition concentration (fold) [3, 8] | 50% inhibition concentration (fold) [4, 8] | 50% inhibition concentration (fold) [6, 8] | 50% inhibition concentration (fold) [7, 8]
practically no inhibition: inhibition ([2]; 100 mM of lysine) | inhibition ([3]; 100 mM of lysine) | inhibition ([4]; 100 mM of lysine) | inhibition ([6]; 100 mM of lysine) | inhibition ([7]; 100 mM of lysine)
±: growth (GT3/pLYSC2; 100 mM added)
~200 µM: MIC (GT3/pLYSC1)
-: growth (GT3/pLYSC1; 0.2 mM added) | growth (GT3/pLYSC1; 0.4 mM added) | growth (GT3/pLYSC1; 0.8 mM added) | growth (GT3/pLYSC1; 1.5 mM added) | growth (GT3/pLYSC1; 3 mM added) | growth (GT3/pLYSC1; 6 mM added) | growth (GT3/pLYSC1; 12 mM added) | growth (GT3/pLYSC1; 25 mM added) | growth (GT3/pLYSC1; 50 mM added) | growth (GT3/pLYSC1; 100 mM added) | growth (GT3/pLYSC1; 200 mM added) | growth (GT3/pLYSC2; 200 mM added)
~100%: inhibition at 5000 µM ([1]; 5 mM of lysine)
59%: Inhibition release (%) [5]
+: growth (GT3/pLYSC2; 0.2 mM added) | growth (GT3/pLYSC2; 0.4 mM added) | growth (GT3/pLYSC2; 0.8 mM added) | growth (GT3/pLYSC2; 1.5 mM added) | growth (GT3/pLYSC2; 3 mM added) | growth (GT3/pLYSC2; 6 mM added) | growth (GT3/pLYSC2; 12 mM added) | growth (GT3/pLYSC2; 25 mM added) | growth (GT3/pLYSC2; 50 mM added)
